{"source": "paper doi:10.1101/277434v2", "about": "(biorxiv, 2024)", "target": "IRAK4 (Homo sapiens, UniProt Q9NWZ3)", "sequence (Q9NWZ3 whole entry)": "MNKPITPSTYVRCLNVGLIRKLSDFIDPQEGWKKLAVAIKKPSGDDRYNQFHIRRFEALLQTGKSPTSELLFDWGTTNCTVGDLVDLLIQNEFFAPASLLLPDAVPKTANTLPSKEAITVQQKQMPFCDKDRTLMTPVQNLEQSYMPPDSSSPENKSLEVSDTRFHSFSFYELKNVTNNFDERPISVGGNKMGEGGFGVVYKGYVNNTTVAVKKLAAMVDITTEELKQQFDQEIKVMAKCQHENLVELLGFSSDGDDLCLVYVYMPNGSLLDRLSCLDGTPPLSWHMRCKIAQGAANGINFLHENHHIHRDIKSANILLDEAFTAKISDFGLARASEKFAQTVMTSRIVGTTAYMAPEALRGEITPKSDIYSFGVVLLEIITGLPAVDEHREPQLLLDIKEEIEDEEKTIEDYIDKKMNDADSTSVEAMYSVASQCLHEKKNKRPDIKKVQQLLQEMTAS", "assay": "biochemical"}
{"smiles": "CN(C)C", "note": "[TMA]", "values": [{"measurement": "IC50", "value": 3.4, "unit": "µM"}]}
